Results reported in US4461772A, “Additives for improving ruminant feed utilization” (SDS Biotech Corporation, priority 1983, dated 1984).

Assays:
rumen fluid = assay: In vitro rumen fluid incubation (18 h): volatile fatty acids and methane inhibition; type: cell-based, sheep; conditions: 39° C.; for C2 (acetate), Ratio Treated to Control / C3 (propionate), Ratio Treated to Control / C4 (butyrate), Ratio Treated to Control / Total VFA, Ratio Treated to Control: 50.0 ppm, pH 7.0; for inhibition at 50 ppm: Ovis aries, vs negative control
Protocol: Below is set forth the procedure followed for testing the compounds of the present invention in vitro. For these studies, rumen fistulated sheep were fed a concentrate diet which constituted 3 parts chopped corn and cob and 1 part alfalfa pellets.
1. Rumen fluid was removed from a fistulated sheep and strained through 4 layers of cheese cloth to remove large feed particles.
2. One part rumen fluid was added to 3 parts of modified McDougal's Artificial Saliva, the pH was adjusted to 7.0 and the saliva solution was prewarmed to 39° C. in a water bath and gassed with CO2.
(a) Modified McDougal Artificial Saliva composition:
To prepare (a), (i) 9.8 g NaHCO3, 11.7 g KHCO3, 5.1 g NaH2 PO4 and 4.08 g KH2 PO4 were diluted with two (2) liters of distilled H2 O; (ii) 20 mL of 100X salt solution was diluted to 1.33 l with tap H2 O; and (iii) mix (i) with (ii) to prepare the modified McDougal Artificial Saliva.
3. Add 0.01 g concentrate feed/1 mL of buffered rumen fluid (the buffered rumen fluid with concentrate should be stirred at all times to prevent the concentrate from settling).
4. Dispense 20 mL of buffered rumen fluid into 30 mL serum bottles that are being gassed with CO2. (A manifold that gases 12 bottles at a time was used.) The bottles should be in a 39° C. H2 O bath.
5. The test compounds, i.e., the compounds of the present invention, were first added to the bottles. After the addition of the buffered rumen fluid to all 12 bottles, the gassing cannulae were quickly removed and a butyl rubber stopper was inserted in each bottle. An aluminum seal was then placed on each bottle and crimped tight.
6. The sealed bottles were removed from the water bath, shaken and placed in a 39° C. incubator for 18 hours.
7. After the 18-hour incubation, the bottles were removed from the incubator and the head space gas was analyzed using a gas partitioner.
8. Four mL of rumen fluid was removed from each bottle for volatile fatty acid (VFA) analysis.
(a) The 4 mL sample was added to a centrifuge tube to which had previously been added 0.04 mL of 50 percent H2 SO4 and 1 mL 2-ethylbutyric acid (concentration 2 mL of 2-ethylbutyric acid/500 mL H2 O v/v).
(b) The mixture from (a) was centrifuged at 10000 xg for 20 minutes.
(c) The supernatant was removed and analyzed by gas-liquid chromatography. The above procedures were followed in all trials for testing the compounds of the present invention.

rumen = assay: In vivo rumen VFA trial in rumen fistulated sheep (90 days); conditions: 90 day trial average
Source text: Eight rumen fistulated sheep were used as test animals. Two sheep were alotted to each of three treatments and a control for each test. Group I was always the control group in each of the different trials. Groups II through IV had varying concentrations of compounds of the present invention added to the animals' feed. The feed ration in each trial constituted 3 parts chopped corn and cob and 1 part alfalfa pellets. Each sheep was offered 800 g daily of the feed in two equal portions. The particular compound and vitamin premix were mixed with chopped corn and cob. Any feed refusals were weighed back before each feeding and discarded. To prevent any mold growth, the feed was stored under refrigeration.
All animals in the various treatment groups were sampled for VFA's twice a week. Equal volumes of rumen fluid from each animal within a treatment were pooled for treatment VFA analysis. Fluid from individual animals was also analyzed for VFA. Individual animal VFA's within a treatment were averaged. This value was then averaged with pooled treatment VFA yielding the final treatment VFA value. All ratios and statistics were calculated using this final value. VFA's were calculated as the ratio treated to its respective pretreatment value. Each of the trials lasted for 90 days.

[1] = system: propionate production in the rumen; conditions: oral administration to ruminants, Raun patents; cited from earlier work
[2] = Table III, Group II, level 0.05 % of feed (approx. 60 ppm in rumen)
[3] = Table III, Group III, level 0.075 % of feed
[4] = Table III, Group IV, level 0.025 % of feed
[5] = Table II, Group II, level 0.01 % of feed
[6] = Table II, Group III, level 0.05 % of feed (approx. 60 ppm in rumen)
[7] = Table II, Group IV, level 0.025 % of feed

SMILES | C2 (acetate), Ratio Treated to Control (rumen fluid) | C3 (propionate), Ratio Treated to Control (rumen fluid) | C4 (butyrate), Ratio Treated to Control (rumen fluid) | Total VFA, Ratio Treated to Control (rumen fluid) | inhibition at 50 ppm (rumen fluid) | propionate production (in words) [1] | other results
O=C(CCl)NCCc1nnn[nH]1 | 0.91 | 1.16 | 1.05 | 1.02 | 4.9% | – | –
Cc1ccc(S(=O)(=O)OCCc2nnn[nH]2)cc1 | 0.92 | 1.23 | 0.95 | 1.07 | 8% | – | –
CS(=O)(=O)NCCC#N [CNCH2 CH2 NHSO2 CH3] | 0.7 | 1.58 | 1.13 | 0.97 | 73.4% | – | –
BrCCc1nnn[nH]1 [TCH2 CH2 Br] | 0.73 | 1.44 | 1.25 | 0.91 | 91.3% | – | –
ClCCc1nnn[nH]1 [TCH2 CH2 Cl, 5-(2-Chloroethyl)Tetrazole] | 0.76 | 1.48 | 0.92 | 1.03 | 74.6% | – | C2 (acetate), Ratio of Treatment VFA to Pretreatment VFA (rumen; [2]): 0.97; C3 (propionate), Ratio of Treatment VFA to Pretreatment VFA (rumen; [2]): 1.06; C4 (butyrate), Ratio of Treatment VFA to Pretreatment VFA (rumen; [2]): 1.11; Total VFA, Ratio of Treatment VFA to Pretreatment VFA (rumen; [2]): 0.88; C2 (acetate), Ratio of Treatment VFA to Pretreatment VFA (rumen; [3]): 0.92; C3 (propionate), Ratio of Treatment VFA to Pretreatment VFA (rumen; [3]): 1.24; C4 (butyrate), Ratio of Treatment VFA to Pretreatment VFA (rumen; [3]): 1.05; Total VFA, Ratio of Treatment VFA to Pretreatment VFA (rumen; [3]): 0.89; C2 (acetate), Ratio of Treatment VFA to Pretreatment VFA (rumen; [4]): 0.97; C3 (propionate), Ratio of Treatment VFA to Pretreatment VFA (rumen; [4]): 1.00; C4 (butyrate), Ratio of Treatment VFA to Pretreatment VFA (rumen; [4]): 1.20; Total VFA, Ratio of Treatment VFA to Pretreatment VFA (rumen; [4]): 1.05
CS(=O)(=O)NCCc1nnn[nH]1 [TCH2 CH2 NHSO2 CH3] | 0.99 | 1.04 | 0.99 | 1.02 | 0.7% | – | –
ClCc1nnn[nH]1 [TCH2 Cl, 5-Chloromethyltetrazole] | 0.74 | 1.49 | 0.95 | 0.96 | 96.8% | – | C2 (acetate), Ratio of Treatment VFA to Pretreatment VFA (rumen; [5]): 1.01; C3 (propionate), Ratio of Treatment VFA to Pretreatment VFA (rumen; [5]): 0.98; C4 (butyrate), Ratio of Treatment VFA to Pretreatment VFA (rumen; [5]): 1.02; Total VFA, Ratio of Treatment VFA to Pretreatment VFA (rumen; [5]): 0.96; C2 (acetate), Ratio of Treatment VFA to Pretreatment VFA (rumen; [6]): 0.97; C3 (propionate), Ratio of Treatment VFA to Pretreatment VFA (rumen; [6]): 1.05; C4 (butyrate), Ratio of Treatment VFA to Pretreatment VFA (rumen; [6]): 1.04; Total VFA, Ratio of Treatment VFA to Pretreatment VFA (rumen; [6]): 0.88; C2 (acetate), Ratio of Treatment VFA to Pretreatment VFA (rumen; [7]): 0.96; C3 (propionate), Ratio of Treatment VFA to Pretreatment VFA (rumen; [7]): 1.10; C4 (butyrate), Ratio of Treatment VFA to Pretreatment VFA (rumen; [7]): 1.05; Total VFA, Ratio of Treatment VFA to Pretreatment VFA (rumen; [7]): 0.93
CO[C@H]1CC[C@@H](O[C@H]2C[C@H]([C@]3(C)CC[C@]4(C[C@H](O)[C@@H](C)[C@@H]([C@@H](C)/C=C(\C)C(=O)[C@H](C)C[C@H](C)C(=O)O)O4)O3)O[C@]3(O[C@@H]([C@H]4O[C@@](O)(CO)[C@H](C)C[C@@H]4C)C[C@@H]3C)[C@@H]2C)O[C@@H]1C [dianemycin] | – | – | – | – | – | propionate production could be increased | –
CC[C@@]1([C@@H]2O[C@@H]([C@H]3O[C@@](O)(CO)[C@H](C)C[C@@H]3C)C[C@@H]2C)CC[C@H]([C@]2(C)CC[C@]3(C[C@H](O)[C@@H](C)[C@@H]([C@@H](C)[C@@H](OC)[C@H](C)C(=O)O)O3)O2)O1 [monensin] | – | – | – | – | – | propionate production could be increased | –
C=C(NC(=O)C(=C)NC(=O)c1csc(C2=N[C@@H]3c4csc(n4)[C@H]4NC(=O)c5csc(n5)[C@H]([C@](C)(O)[C@@H](C)O)NC(=O)[C@H]5CSC(=N5)/C(=C/C)NC(=O)[C@H]([C@@H](C)O)NC(=O)c5csc(n5)[C@]3(CC2)NC(=O)[C@H](C)NC(=O)C(=C)NC(=O)[C@H](C)NC(=O)[C@H]([C@@H](C)CC)N[C@@H]2C=Cc3c([C@H](C)O)cc(nc3[C@H]2O)C(=O)O[C@@H]4C)n1)C(N)=O [thiostrepton] | – | – | – | – | – | propionate production could be increased | –
